These results are taken from article PMC5318888, “SAMHD1 enhances nucleoside-analogue efficacy against HIV-1 in myeloid cells” (Scientific Reports, 2017).

Data set [1] concerns HIV-1-GFP. Put plainly: microbe, parasite or virus in culture. The data set is classed as cell-based. How it is done: H9 and Jurkat cells (6 × 10^5 cells/mL) were treated with increasing concentrations of nucleoside analogues (0–200 μM; except CFB, 0–1.6 μM) and incubated for 4 h at 37 °C in 5% CO2. Cells were then infected with HIV-1-GFP by spinoculation at 800 × g for 90 min in the presence of 1 μg/mL polybrene, and further incubated at 37 °C in 5% CO2 for 72 h. Undifferentiated U937 and THP-1 (PMA^−) cells (6 × 10^5 cells/mL) were treated with increasing concentrations of nucleoside analogues (0–200 μM; except CFB, 0–1.6 μM) and incubated at 37 °C in 5% CO2 for 48 h. Cells were then infected with HIV-1-GFP by spinoculation at 800 × g for 90 min in the presence of 1 μg/mL polybrene, and further incubated at 37 °C in 5% CO2 for 72 h. Non-dividing U937 and THP-1 (PMA^+) cells (6 × 10^5 cells/mL) were differentiated by addition of 100 nM PMA (PMA^+) for 48 h and treated with increasing concentrations of nucleoside analogues as described above. Cells were then infected with HIV-1-GFP in the presence of 1 μg/mL polybrene and further incubated at 37 °C in 5% CO2 for 72 h. The percentage of GFP^+cells was determined by one-colour flow cytometry using a Fortessa X20 analyser (BD Biosciences) and the data analysed using the FlowJo software suite.
(§1) Non-ambiguous values were subjected to a replicate test to calculate confidence intervals of 95% (95% CI). CC50 and EC50 values were determined for at least two independent experiments for each nucleoside analogue and a selectivity index (SI) also calculated, (SI = CC50/EC50). EC50 values for each replicate were used to perform an unpaired two-tailed t-test to determine significant differences between U937 cells expressing SAMHD1 wt or HD206-7AA mutant and THP-1 cells expressing Vpx or untransduced cells. P values of <0.005 were considered statistically significant.

Data set [2] deals with HIV-1-GFP. Nature of the data set: Anti-HIV-1 activity in U937 cells transduced with wt SAMHD1 or HD206-7AA mutant. The data set is classed as cell-based. The procedure:
(§2) Antiviral assays were further performed in monocytoid cells transduced with YFP-expressing VLPs containing WT SAMHD1, HD206-7AA or Vpx. Briefly, U937 cells (6 × 10^5 cells/mL) were transduced with WT SAMHD1-YFP or HD206-7AA-YFP VLPs by spinoculation at 800 × g for 90 min in the presence of 1 μg/mL polybrene. Similarly, THP-1 cells (6 × 10^5 cells/mL) were transduced with Vpx-YFP VLPs by spinoculation at 800 × g for 90 min in the presence of 1 μg/mL polybrene. Cells were incubated at 37 °C in 5% CO2 and after 72 h, PMA^+ cells (6 × 10^5 cells/mL) were treated with 100 nM PMA and PMA^− cells (7.5 × 10^4 cells/mL) were left untreated. Cells were then incubated at 37 °C in 5% CO2 for 48 h. Nucleoside analogues were added at increasing concentrations (0–200 μM; except CFB, 0–1.6 μM) and cells were further incubated for 48 h. PMA^− cells were then infected with HIV-1-GFP by spinoculation at 800 × g for 90 min in the presence of 1 μg/mL polybrene, PMA^+ cells were infected with HIV-1-GFP in the presence of 1 μg/mL polybrene only. Cells were incubated for 72 h at 37 °C in 5% CO2 and then analysed by two-colour flow cytometry using a Fortessa X20 analyser (BD Biosciences). Data were analysed using the FlowJo software suite.
as §1, with “The cytotoxic concentration of nucleoside analogue that inhibits cell viability by 50% (CC50) and the effective concentration of nucleoside analogue that inhibits infection of cells by 50% (EC50) were calculated for each independent experiment by non-linear regression using GraphPad Prism v6.00 for Windows (GraphPad Software, San Diego, CA). Non-ambiguous” for “Non-ambiguous”

The test system of data set [3] is HIV-1-GFP. Nature of the data set: Anti-HIV-1 activity in THP-1 cells with or without Vpx transduction. The data set is classed as cell-based. How it is done: as §2
as §1, with “The cytotoxic concentration of nucleoside analogue that inhibits cell viability by 50% (CC50) and the effective concentration of nucleoside analogue that inhibits infection of cells by 50% (EC50) were calculated for each independent experiment by non-linear regression using GraphPad Prism v6.00 for Windows (GraphPad Software, San Diego, CA). Non-ambiguous” for “Non-ambiguous”

The nature of data set [4]: Cytotoxicity, live cells by flow cytometry, H9 cells. As to conditions: human. The data set is classed as cell-based. How it is done: (§3) H9, Jurkat and undifferentiated U937 and THP-1 (PMA^−) cells (6 × 10^5 cells/mL) were treated with increasing concentrations of nucleoside analogues (0–200 μM; except CFB, 0–1.6 μM) and incubated at 37 °C in 5% CO2 for 48 h. Medium was then replaced and cells were further incubated for 72 h. Non-dividing U937 and THP-1 (PMA^+) cells (6 × 10^5 cells/mL) were differentiated by addition of 100 nM phorbol-12-myristate-13-acetate (PMA^+) for 48 h and then treated with increasing concentrations of nucleoside analogues as described above. The percentage of live cells was determined by flow cytometry using Live/Dead fixable blue-fluorescent dyes (Invitrogen) and a Fortessa X20 analyser (BD Biosciences). Data were analysed using the FlowJo software suite.
as §1, with “The cytotoxic concentration of nucleoside analogue that inhibits cell viability by 50% (CC50) and the effective concentration of nucleoside analogue that inhibits infection of cells by 50% (EC50) were calculated for each independent experiment by non-linear regression using GraphPad Prism v6.00 for Windows (GraphPad Software, San Diego, CA). Non-ambiguous” for “Non-ambiguous”
On the technique in general: A flow cytometer gives signals particle by particle.

A short description of data set [5]: Cytotoxicity, live cells by flow cytometry, Jurkat cells. The data set is classed as cell-based. Particulars: human. How it is done: as §3
as §1, with “The cytotoxic concentration of nucleoside analogue that inhibits cell viability by 50% (CC50) and the effective concentration of nucleoside analogue that inhibits infection of cells by 50% (EC50) were calculated for each independent experiment by non-linear regression using GraphPad Prism v6.00 for Windows (GraphPad Software, San Diego, CA). Non-ambiguous” for “Non-ambiguous”

The nature of data set [6]: Cytotoxicity, live cells by flow cytometry, U937 cells (PMA−/PMA+). The data set is classed as cell-based. Particulars: human. The procedure:
as §3
as §1, with “The cytotoxic concentration of nucleoside analogue that inhibits cell viability by 50% (CC50) and the effective concentration of nucleoside analogue that inhibits infection of cells by 50% (EC50) were calculated for each independent experiment by non-linear regression using GraphPad Prism v6.00 for Windows (GraphPad Software, San Diego, CA). Non-ambiguous” for “Non-ambiguous”

In the next data set the test system is U937 cells. The description is as above. The data set is classed as cell-based. Particulars: human, 48 h. The procedure: as §3
as §1, with “The cytotoxic concentration of nucleoside analogue that inhibits cell viability by 50% (CC50) and the effective concentration of nucleoside analogue that inhibits infection of cells by 50% (EC50) were calculated for each independent experiment by non-linear regression using GraphPad Prism v6.00 for Windows (GraphPad Software, San Diego, CA). Non-ambiguous” for “Non-ambiguous”

A short description of data set [7]: Cytotoxicity, live cells by flow cytometry, THP-1 cells (PMA−/PMA+). The data set is classed as cell-based. As to conditions: human. How it is done:
as §3
as §1, with “The cytotoxic concentration of nucleoside analogue that inhibits cell viability by 50% (CC50) and the effective concentration of nucleoside analogue that inhibits infection of cells by 50% (EC50) were calculated for each independent experiment by non-linear regression using GraphPad Prism v6.00 for Windows (GraphPad Software, San Diego, CA). Non-ambiguous” for “Non-ambiguous”

The next data set concerns THP-1 cells. Described as above. The data set is classed as cell-based. Particulars: human, 48 h. The procedure: as §3
as §1, with “The cytotoxic concentration of nucleoside analogue that inhibits cell viability by 50% (CC50) and the effective concentration of nucleoside analogue that inhibits infection of cells by 50% (EC50) were calculated for each independent experiment by non-linear regression using GraphPad Prism v6.00 for Windows (GraphPad Software, San Diego, CA). Non-ambiguous” for “Non-ambiguous”

Another data set can be described thus: in vitro. The data set is classed as cell-based. As to conditions: human. How it is done: as §3
as §1, with “The cytotoxic concentration of nucleoside analogue that inhibits cell viability by 50% (CC50) and the effective concentration of nucleoside analogue that inhibits infection of cells by 50% (EC50) were calculated for each independent experiment by non-linear regression using GraphPad Prism v6.00 for Windows (GraphPad Software, San Diego, CA). Non-ambiguous” for “Non-ambiguous”

For a further data set, the target named is T1, SAMHD1 (Homo sapiens, UniProt Q9Y3Z3).
T1 construct: The final concentrations were 100 nM SAMHD1(115–626), 10 nM Ppx1; strep-tag; made in house
T1 sequence (Q9Y3Z3 115-626): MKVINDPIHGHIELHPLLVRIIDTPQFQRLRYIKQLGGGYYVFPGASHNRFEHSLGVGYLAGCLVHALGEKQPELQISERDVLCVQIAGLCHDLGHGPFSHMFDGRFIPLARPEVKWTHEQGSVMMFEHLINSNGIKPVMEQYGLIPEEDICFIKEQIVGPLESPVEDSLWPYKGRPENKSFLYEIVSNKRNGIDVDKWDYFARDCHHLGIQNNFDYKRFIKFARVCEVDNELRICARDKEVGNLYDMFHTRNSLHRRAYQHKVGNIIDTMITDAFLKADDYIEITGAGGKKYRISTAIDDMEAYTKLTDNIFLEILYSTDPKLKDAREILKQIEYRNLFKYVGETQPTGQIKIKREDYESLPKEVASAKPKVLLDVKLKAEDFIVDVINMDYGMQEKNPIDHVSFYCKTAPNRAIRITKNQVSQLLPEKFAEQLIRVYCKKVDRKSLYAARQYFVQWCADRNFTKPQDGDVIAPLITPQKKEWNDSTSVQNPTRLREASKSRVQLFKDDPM
More on the design: method as in PMID 25331707. As to conditions: previous in vitro assays; cited from earlier work.

Some results are limits rather than exact numbers.

As to `Nc1nc(NC2CC2)c2ncn([C@H]3C=C[C@@H](CO)C3)c2n1` [ABC], the EC50 with HIV-1-GFP [1] (Human immunodeficiency virus 1, THP-1, read-out: EC50 [95% CI], THP1 PMA+) came to 0.031 µM; with HIV-1-GFP [1] (Human immunodeficiency virus 1, THP-1, read-out: EC50 [95% CI], THP1 PMA−), 0.493 µM; in the data set with HIV-1-GFP [1] (Human immunodeficiency virus 1, U-937, read-out: EC50 [95% CI], U937 PMA+), 7.47 µM; in the data set on HIV-1-GFP [1] (Human immunodeficiency virus 1, U-937, read-out: EC50 [95% CI], U937 PMA−), 14.1 µM; in the data set on HIV-1-GFP [2] (Human immunodeficiency virus 1, U-937, read-out: EC50 [95% CI], U937 PMA+, HD206/7AA+ population) it was 7.06 µM; in the data set on HIV-1-GFP [2] (Human immunodeficiency virus 1, U-937, read-out: EC50 [95% CI], U937 PMA+, SAMHD1+ population) it was 0.173 µM. The EC50 came out at 22.1 µM in the data set with HIV-1-GFP [2] (Human immunodeficiency virus 1, U-937, read-out: EC50 [95% CI], U937 PMA−, HD206/7AA+ population); 17.5 µM in the data set with HIV-1-GFP [2] (Human immunodeficiency virus 1, U-937, read-out: EC50 [95% CI], U937 PMA−, SAMHD1+ population); 7.05 µM in the data set with HIV-1-GFP [3] (Human immunodeficiency virus 1, THP-1, read-out: EC50 [95% CI], THP1 PMA+, Vpx+); 0.038 µM in the data set on HIV-1-GFP [3] (Human immunodeficiency virus 1, THP-1, read-out: EC50 [95% CI], THP1 PMA+, Vpx−); 0.622 µM in the data set with HIV-1-GFP [3] (Human immunodeficiency virus 1, THP-1, read-out: EC50 [95% CI], THP1 PMA−, Vpx+); 0.459 µM in the data set with HIV-1-GFP [3] (Human immunodeficiency virus 1, THP-1, read-out: EC50 [95% CI], THP1 PMA−, Vpx−). The “fold increase of anti-HIV-1 activity in PMA+ over PMA− cells” value in the data set on HIV-1-GFP [1] (THP-1) worked out at 16 fold. For the same compound, the “SI, selectivity index CC50/EC50” value is reported as over 6452 in the data set with HIV-1-GFP [1] (THP-1 PMA+), over 406 in the data set on HIV-1-GFP [1] (THP-1 PMA−), over 27 with HIV-1-GFP [1] (U937 PMA+) and over 14 in the data set with HIV-1-GFP [1] (U937 PMA−). Further, the “Fold (EC50 HD206/7AA vs SAMHD1)” value in the data set with HIV-1-GFP [2] (U937 PMA+) was found to be 41 fold; in the data set with HIV-1-GFP [2] (U937 PMA−), 1 fold. Also, the “Fold (EC50 Vpx+ vs Vpx−)” value in the data set with HIV-1-GFP [3] (THP1 PMA+) stood at 187 fold; in the data set with HIV-1-GFP [3] (THP1 PMA−) it was 1 fold. Besides, the CC50 at 48 h (in data set [4]; in [5]; in [6]; in data set [7]; in the data set “in vitro”) was over 200 µM throughout. The CC50 in the data set with U937 cells and in the data set on THP-1 cells was over 200 µM each time.

With `Nc1nc2c(ncn2COCCOP(=O)(O)OP(=O)(O)OP(=O)(O)O)c(=O)[nH]1` [ACV-TP, Aciclovir triphosphate], on SAMHD1, the “allosteric activation of SAMHD1” value is “allosteric activator of SAMHD1 with comparable efficiency to GTP” and the “hydrolysis by SAMHD1 (substrate)” value was “non-hydrolysable”.
